{
  "source": "BindingDB's records for doi:10.1021/jm00067a022",
  "about": "(Syntex Discovery Research, 1993)",
  "assay": "Inhibition of lanosterol 14-alpha-demethylase in hamster hepatic microsomes",
  "data": [
    {"smiles": "CC(=O)N1CCN(c2ccc(OC[C@@H]3CO[C@@](Cn4ccnc4)(c4ccc(Cl)cc4Cl)O3)cc2)CC1", "note": "[Nizoral]", "values": [
      {"measurement": "Ki", "result": 25, "unit": "nM"}
    ]}
  ]
}
